Here are results for two compounds from patent US20100286058A1, “Assessing Chemotherapy Resistance of Colorectal Tumors by Determining Sparc Hypermethylation” (priority 2007, published 2010).

One experiment concerns MIP 101 cells. Kind of experiment: Cell viability (WST-1). In kind it is cell-based. To be noted: 24 h, read-out: viable cells. The procedure:
(§1) Human colorectal cancer (CRC) cell lines, MIP 101, RKO, HCT116 and HT29 (ATCC), and a normal colon cell line CCD 112CON (ATCC), were maintained in DMEM supplemented with 10% fetal bovine serum; 1% Kanamycin, Streptomycin, Penicillin; and incubated at 37° C. and 5% CO2. To determine the effect of reversing the methylation status of SPARC, a demethylating agent (5-Aza-2′deoxycytidine, “5-Aza”) was added to the culture media at a final concentration of 4 μm for a period of 7 days with medium changes on day 4, before assessing its effect on cell viability (WST-1), apoptosis (Caspase 3/7 and TUNEL) and cell proliferation.
Cell viability was evaluated using WST-1 (Roche) following the manufacturer's instructions. Cells exposed to 5-Aza for a period of 7 days (and untreated controls) were seeded at 10,000 cells per well in triplicate into a 96-well plate. Twelve hours later, 5-Fluorouracil (5-FU) was added to a final concentration of 0, 500 or 1,000 μM for an additional 24 h. WST reagent was added to each well and incubated at 37° C. after which plates were read at 60 min at 440 nm. Three independent experiments were analyzed. The significance of differences were determined using Student's t-test (P<0.05).

Experiment [1] has as its target T1, interaction between Dnmtl and the SPARC promoter (Homo sapiens, UniProt P26358).
T1 construct: endogenous in cells
Kind of experiment: Chromatin immunoprecipitation (ChIP) assay. In kind it is cell-based. The settings on record: all CRC cell lines, following exposure to 5-Aza. The procedure: To evaluate the effect of 5-Aza exposure on the interaction between Dnmtl (a DNA methyltranferase) with the promoter region of SPARC, a ChIP assay was performed using a ChIP kit (Epigentek) as per the manufacturer's instructions. Cells were fixed with formaldehyde for protein/DNA crosslinking and lysed. The DNA was sheared by sonication (10 pulses, […]) and added to a well coated with the antibody to the protein of interest (anti-Dnmtl, cat. #A-1001, Epigentek). Washes were performed to remove unbound material, while Dnmtl-bound DNA was released by protein digestion with proteinase K. The DNA was purified through a column and PCR was performed using primers designed to target the SPARC promoter region.

In a further experiment the test system is SPARC promoter. In words: Methylation specific PCR of CRC cell lines. In kind it is cell-based, Human. To be noted: 4 μM 5-Aza, 7 days in vitro; all four CRC cell lines (MIP101, RKO, HCT116, HT29). How it is done: as §1
This technique is based on bisulfite treatment of the DNA, which modifies cytosines to uracil except when they are methylated (5-methylcytosine), followed by PCR. After bisulfite modification the DNA was amplified using methylation specific primers. Two primer sets, previously described, were used to target the CpG island located in the putative promoter region of the SPARC gene, and are referred as MSP1 and MSP2. Primers targeting INK4A(p16) were used as control. […] For RT-PCR, mRNA isolated from CRC cell lines were extracted using Trizol (Invitrogen). […]

The next experiment relates to HCT 116 cells. In words: Cell proliferation (cell counts). The class given is cell-based, Human. To be noted: incubated with 5-Aza, most noticeable after 2-days. How it is done:
as §1
(§2) To determine the rate of cell proliferation, cells exposed to 5-Aza for 7 days (and untreated controls) were seeded at 20,000 cells/well into a 48-well plate. Cells were counted from duplicate wells at 24, 48 and 72 h. The effect of 5-FU exposure for 24 hour-period on cell proliferation in the presence or absence of 5-Aza was also determined. We performed two independent experiments.

The next experiment relates to HT29 cells. Kind of experiment: Cell proliferation (cell counts). In kind it is cell-based, Human. The settings on record: incubated with 5-Aza, most noticeable after 2-days. The procedure: as §1, §2
A further experiment relates to MIP101 cells. In words: Cell proliferation (cell counts). In kind it is cell-based, Human. The procedure:
as §1, §2

A further experiment concerns RKO cells. Kind of experiment: Cell proliferation (cell counts). In kind it is cell-based, Human. The procedure: as §1, §2
The test system of another experiment is INK4A(p16) promoter. Kind of experiment: Methylation specific PCR of CRC cell lines (control promoter). In kind it is cell-based, Human. The settings on record: 4 μM 5-Aza, 7 days in vitro; all four CRC cell lines.
Experiment [2] deals with SPARC. Kind of experiment: Western blot of SPARC protein. The class given is cell-based, Human. To be noted: MIP101 cells (printed MW101) exposed to 5-Aza.
Experiment [3] has as its system SPARC. In words: RT-PCR of SPARC mRNA. The settings on record: MIP101 cells exposed to 5-Aza. The class given is cell-based, Human. The text has this:
This technique is based on bisulfite treatment of the DNA, which modifies cytosines to uracil except when they are methylated (5-methylcytosine), followed by PCR. After bisulfite modification the DNA was amplified using methylation specific primers. Two primer sets, previously described, were used to target the CpG island located in the putative promoter region of the SPARC gene, and are referred as MSP1 and MSP2. Primers targeting INK4A(p16) were used as control. […] For RT-PCR, mRNA isolated from CRC cell lines were extracted using Trizol (Invitrogen). Primers to amplify SPARC, sense 5′-GGGAGGGCCTTGGCAG-3′ antisense 5′-GCACATGGGGGTGTTG-3′ and actin, sense 5′-GCCACGGCTGCTTCCAG-3′antisense 5′-GGCGTACAGGTCTTTGC-3′ were annealed at 49° C. in 45 cycles after reverse transcription for 1 hour at 50° C. Amplicons were separated in 2.5% agarose gel electrophoresis.

Values joined by “and” are separate entries in the source; they are usually repeats but may differ in a detail not shown here. Equal values may be shown once. “Also recorded” adds a separate entry of the source.

T1 sequence (P26358 whole entry): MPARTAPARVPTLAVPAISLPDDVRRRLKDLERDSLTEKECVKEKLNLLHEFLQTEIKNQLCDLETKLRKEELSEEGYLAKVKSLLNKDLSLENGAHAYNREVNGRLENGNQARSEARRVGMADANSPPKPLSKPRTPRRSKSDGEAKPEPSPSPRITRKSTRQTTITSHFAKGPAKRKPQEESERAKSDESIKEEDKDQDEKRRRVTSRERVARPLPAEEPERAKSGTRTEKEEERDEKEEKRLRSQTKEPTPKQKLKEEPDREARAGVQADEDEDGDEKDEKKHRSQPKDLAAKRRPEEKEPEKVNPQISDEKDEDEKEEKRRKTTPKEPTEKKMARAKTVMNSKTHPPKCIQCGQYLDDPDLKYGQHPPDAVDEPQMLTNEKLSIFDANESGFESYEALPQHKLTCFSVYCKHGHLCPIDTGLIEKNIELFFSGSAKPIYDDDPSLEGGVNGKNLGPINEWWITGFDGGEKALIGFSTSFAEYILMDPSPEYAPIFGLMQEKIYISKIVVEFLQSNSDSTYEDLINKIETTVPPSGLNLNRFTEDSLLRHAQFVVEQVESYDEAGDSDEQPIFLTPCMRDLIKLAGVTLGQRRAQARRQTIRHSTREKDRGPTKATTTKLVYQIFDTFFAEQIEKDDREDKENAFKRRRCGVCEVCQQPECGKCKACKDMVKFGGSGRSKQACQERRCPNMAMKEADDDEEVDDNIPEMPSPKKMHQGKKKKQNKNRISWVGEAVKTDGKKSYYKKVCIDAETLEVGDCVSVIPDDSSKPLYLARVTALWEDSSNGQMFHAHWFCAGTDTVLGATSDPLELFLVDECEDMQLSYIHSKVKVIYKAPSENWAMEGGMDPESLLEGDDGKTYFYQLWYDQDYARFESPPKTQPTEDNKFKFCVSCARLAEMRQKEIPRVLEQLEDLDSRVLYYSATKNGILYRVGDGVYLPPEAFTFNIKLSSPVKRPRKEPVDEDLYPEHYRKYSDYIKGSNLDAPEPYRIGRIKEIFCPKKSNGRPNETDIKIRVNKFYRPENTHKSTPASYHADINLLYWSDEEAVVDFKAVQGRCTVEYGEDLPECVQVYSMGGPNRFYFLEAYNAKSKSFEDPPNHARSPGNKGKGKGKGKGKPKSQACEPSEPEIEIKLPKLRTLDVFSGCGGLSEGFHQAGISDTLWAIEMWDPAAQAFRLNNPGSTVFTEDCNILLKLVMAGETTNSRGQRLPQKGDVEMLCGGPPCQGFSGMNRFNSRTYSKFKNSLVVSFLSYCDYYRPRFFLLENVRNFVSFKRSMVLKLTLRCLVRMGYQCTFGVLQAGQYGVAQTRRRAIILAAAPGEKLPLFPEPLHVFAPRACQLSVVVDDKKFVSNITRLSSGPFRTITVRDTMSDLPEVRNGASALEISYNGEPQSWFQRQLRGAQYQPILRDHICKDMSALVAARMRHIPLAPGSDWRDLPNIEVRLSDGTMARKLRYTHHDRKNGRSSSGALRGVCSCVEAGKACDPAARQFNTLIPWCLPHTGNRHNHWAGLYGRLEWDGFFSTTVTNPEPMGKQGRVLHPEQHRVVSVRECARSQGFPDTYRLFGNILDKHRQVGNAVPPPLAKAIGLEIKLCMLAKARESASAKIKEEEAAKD

`O=c1[nH]cc(F)c(=O)[nH]1` [5-FU, 5-Fluorouracil]: in the experiment on MIP 101 cells (Homo sapiens, 500 μM 5-FU only), the viability at 500 µM was found to be 87.7%. Moreover, in the experiment on MIP 101 cells (Homo sapiens, 1,000 μM 5-FU only), the viability at 1000 µM came out at 82.7%.

On to `Nc1ncn([C@H]2C[C@H](O)[C@@H](CO)O2)c(=O)n1` [5-Aza, 5-Aza-2′deoxycytidine], for which, in experiment [1], the “interaction between the SPARC promoter and Dnmtl (ChIP)” value is recorded as “no longer observed”. For the same compound, in the experiment with SPARC promoter, the “methylation status in the MSP1 and MSP2 regions of the SPARC promoter” value is recorded as “change in the methylation status”. For the same compound, the cell proliferation entry with HCT 116 cells and in the experiment with HT29 cells was “less dramatic yet significant decrease in cell proliferation” throughout. Further, the “increase in cell doubling time” value was 3 fold in the experiment with MIP101 cells (4 μM 5-Aza vs control); 2.4 fold and 2.43 fold in the experiment on RKO cells (4 μM 5-Aza vs control). The doubling time in the experiment on MIP101 cells (incubation with 4 μM 5-Aza (control 0.8 days)) is recorded as 2.4 days; in the experiment on RKO cells (incubation with 4 μM 5-Aza (control 0.7 days)), 1.7 days. Further, the “methylation status of the INK4A(p16) promoter” value in the experiment on INK4A(p16) promoter is “change in the methylation status”. Moreover, the “SPARC protein expression (Western blot)” value in the experiment on SPARC [2] is “reactivation of SPARC RNA and protein expression”. Besides, the “SPARC RNA expression (RT-PCR)” value in the experiment with SPARC [3] is “higher SPARC expression; also recorded: reactivation of SPARC RNA and protein expression”.
